Data set [1] concerns Human ARPE-19 cells. The data set can be described thus: Light microscopy of cell morphology after TBHP challenge. In kind it is cell-based. The protocol: FIG. 1B depicts cells alone (control). FIG. 1C depicts cells treated with 300 μM TBHP. FIG. 1D depicts cells treated with 0.9 μM of ciclopirox olamine.
FIG. 8B depicts cells alone (control). FIG. 8C depicts cells treated with 300 μM TBHP. FIG. 8D depicts cells treated with 0.6 μM compound 414.
Human ARPE-19 cells morphology was examined using phase contrast on a Zeiss 510 NLO confocal laser scanning microscope with a Plan-Apochromatic 20×0.8 DIC objective.

Data set [2] relates to Human lens epithelial cells. As to the kind of experiment: TBHP-induced cell death in lens epithelial cells. It counts as cell-based. To be noted: lens epithelial cells (FIG. 19); 0.9 μM 24 h, then 300 μM TBHP 24 h. The protocol:
Immortalized human lens epithelial cells (CRL-11421) obtained from the American Type Culture Collection (ATCC, Manassas, VA, USA) were cultured in Eagle's minimum essential media (EMEM, ATCC) containing 10% fetal bovine serum (FBS), 100 IU/mL penicillin, 100 μg/mL streptomycin, 100 μg/mL gentamicin, and 2.5 μg/mL amphotericin B (Thermo Fisher Scientific). Human ARPE-19 cells were plated in 96-well plates for 24 hours in DMEM supplemented with FBS and antibiotics. ARPE-19 cells were preincubated with either ciclopirox olamine (Sigma), compound 414 (Chemical Diversity, San Diego, CA), compound 434 (Chemical Diversity) or no compound for 24 hours and then exposed to varying concentrations of tert-butyl hydroperoxide (TBHP; Sigma-Aldrich, St. Louis, MO) the next day for 24 hours. Cell viability was measured the following day by […] cell viability assay (Promega, Madison, WI) using a BioTek FLX800TM fluorescence reader (BioTek Winooski, VT). […] Protective effect of 0.9 μMciclopirox olamine on lens epithelial cells exposed to 300 μMTBHP.

For data set [3], the system named is Human ARPE-19 cells. As to the kind of experiment: Cell viability on nitrite-modified extracellular matrix. To be noted: 0.9 μM, 24 h. In kind it is cell-based. The protocol: To prepare the RPE ECM nitrite-treated plates, ARPE-19 cells were grown on 24-well Transwell permeable supports (Corning, Tewksbury, MA, USA) in 12-well plates for 6 to 8 weeks to allow for ECM formation. ARPE-19 cells were removed by the addition of 20 mM ammonium hydroxide buffer for 20 minutes, and the ECM was washed three times with phosphate-buffered saline (PBS). Phosphate-buffered saline was removed from the RPE-derived ECM (RPE-ECM), which was then allowed to dry. The RPE-derived ECM plates were either used immediately after drying, or stored at −20° C. for future use. RPE-derived ECM was processed further to create four experimental plating surfaces (untreated, nitrite modified, nitrite modified followed by washing, or nitrite modified followed by washing and coating with a mixture of ECM ligands).
Nitrite-modified ECM was prepared by adding 100 mM sodium nitrite to the ECM and incubating at 37° C. for 7 days. Plates were then washed at least four times with PBS and further incubated with PBS for 4 hours. Following this, the plates were washed at least two additional times to completely remove the nitrite.
Reactive nitrogen species (RNS) act together with reactive oxygen species (ROS) to damage cells, causing nitrosative stress. […]

Data set [4] relates to Human ARPE-19 cells. The data set can be described thus: CellTox Green cytotoxicity assay. In kind it is cell-based. To be noted: 0.9 μM 24 h. As for the experimental part:
FIG. 14 is a graph illustrating cytotoxicity level of the compounds in human retinal pigment epithelial (RPE) cells. Human ARPE-19 cells were preincubated with 0.9 μM of compound 414 or 434 for 24 hours and then exposed to 300 μM tert-butyl hydroperoxide (TBHP) for 24 hours. Cell toxicity was measured in human ARPE-19 cells after treatment with TBHP and compounds 414 and 434.
Human ARPE-19 or primary RPE were plated in 96-well plates for 24 hours in DMEM supplemented with FBS and antibiotics. ARPE-19 cells were incubated with compound (Chemical Diversity) or exposed to tert-butyl hydroperoxide (Sigma-Aldrich, St. Louis, MO) for 24 hours. Cell cytotoxicity was measured the following day by CellTox™ Green cytotoxicity assay (Promega, Madison, WI) using a BioTek FLx800™ fluorescence reader (BioTek, Winooski, VT).
After exposure to TBHP for 24 hours and treatment with compound 414 or 434 cytotoxicity levels were measured in human ARPE-19 cells (FIG. 14).

The subject of another data set is HUVEC. The data set can be described thus: TBHP-induced cell death in HUVEC. In kind it is cell-based, human. To be noted: 0.9 μM 24 h preincubation, 400 μM TBHP 24 h. As for the experimental part:
(§1) FIG. 17 is a graph illustrating that Compound 414 and 434 protect various cell types from oxidative stress-induced cell death. Human ARPE-19, HUVEC, and C6 cells were preincubated with compound 414 and 434 for 24 hours, and then exposed to 400 μM tert-butyl hydroperoxide (TBHP) to induce cell death for 24 hours.
(§2) Human ARPE-19, HUVEC, and C6 cells were preincubated with compound 414 and 434 for 24 hours, and then exposed to 400 μM tert-butyl hydroperoxide (TBHP) to induce cell death for 24 hours.

A further data set concerns C6 cells. The data set can be described thus: TBHP-induced cell death in C6 cells. To be noted: 0.9 μM 24 h preincubation, 400 μM TBHP 24 h. In kind it is cell-based. As for the experimental part: as §1, §2
Data set [5] deals with 661 W photoreceptor-derived cells. The data set can be described thus: TBHP-induced oxidative stress in 661 W photoreceptor-derived cells. In kind it is cell-based, Murine. To be noted: 24 h preincubation, then 300 μM TBHP 24 h, n=4. As for the experimental part: As shown in FIGS. 20A-20B, compounds 414 and 434 protect 661 W photoreceptor-derived cells from tert-butyl […] oxidative stress. Retinal photoreceptor-derived cell line (661 W) were cultured until confluent in Dulbecco's modified eagle medium (DMEM) with 10% fetal bovine serum (FBS). Murine photoreceptor-derived cells were preincubated with 3 μMciclopirox olamine for 24 hours and then exposed to 300 μM tert-butyl hydroperoxide (TBHP) to induce cell death for 24 hours. […] Bar: standard error, n=4. student t-test was performed for statistical analysis.

This is an account of results in patent US12310970B2, “Compounds and methods for treating or preventing anterior segment ocular disorders and/or retinal degenerations” (YALE UNIVERSITY, priority 2018, dated 2025).

Structures can show the parent of a compound that is named as a salt.

Consider `Cc1cc(C2CCCCC2)n(O)c(=O)c1` [ciclopirox olamine, 6-cyclohexyl-1-hydroxy-4-methyl-2(1H)-pyridone, ethanolamine salt, reference compound], for which the “cell morphology after challenge with TBHP” value with Human ARPE-19 cells [1] (0.9 μM ciclopirox olamine and 300 μM TBHP) is recorded as “helps to preserve a normal morphology”. Moreover, the “cell viability after exposure to TBHP” value in data set [2] is “significantly increases cell viability”.

Take `CCc1cccc(C)c1Nc1c(-c2cc(Br)ccc2O)nc2nc(C)cc(C)n12` [compound 434]: the “cell viability on nitrite-modified ECM” value in the data set on Human ARPE-19 cells [3] was “enhances cell viability”. For the same compound, the “cytotoxicity, treatment with compound alone” value in the data set with Human ARPE-19 cells [4] is given as “reduce cytotoxicity”. For the same compound, the “protection from oxidative stress-induced cell death” value in the data set on HUVEC and in the data set with C6 cells was “Protective effects” throughout. Moreover, in data set [5], the “cell viability after exposure to TBHP” value is listed as “significantly increased cell viability”.

For `CCc1cccc(C)c1Nc1c(-c2cc(Br)ccc2O)nc2ncccn12` [compound 414], the “cell morphology after challenge with TBHP” value in the data set on Human ARPE-19 cells [1] (0.6 μM compound and 300 μM TBHP) is reported as “helps to preserve a normal morphology”. The “cell viability on nitrite-modified ECM” value in the data set on Human ARPE-19 cells [3] is on record as “enhances cell viability”. For the same compound, in the data set on Human ARPE-19 cells [4], the “cytotoxicity, treatment with compound alone” value is on record as “reduce cytotoxicity”. In addition, the “protection from oxidative stress-induced cell death” value with HUVEC and in the data set on C6 cells was “Protective effects” each time. Also, the “cell viability after exposure to TBHP” value in data set [5] was “significantly increased cell viability”.
